Columns and labels:
Sulfotransferase 1E1 [1] = target: T1, Sulfotransferase 1E1 (Homo sapiens, UniProt P49888); assay: Substrate activity at SULT1E1 (unknown origin) expressed in baculovirus infected Sf9 cells assessed as substrate Km incubated for 15 mins using [35S-]PAPS as sulfate donor by TLC analysis; conditions: sf9, 0.25 h, BLD = below limit of detection
T1 sequence (P49888 whole entry): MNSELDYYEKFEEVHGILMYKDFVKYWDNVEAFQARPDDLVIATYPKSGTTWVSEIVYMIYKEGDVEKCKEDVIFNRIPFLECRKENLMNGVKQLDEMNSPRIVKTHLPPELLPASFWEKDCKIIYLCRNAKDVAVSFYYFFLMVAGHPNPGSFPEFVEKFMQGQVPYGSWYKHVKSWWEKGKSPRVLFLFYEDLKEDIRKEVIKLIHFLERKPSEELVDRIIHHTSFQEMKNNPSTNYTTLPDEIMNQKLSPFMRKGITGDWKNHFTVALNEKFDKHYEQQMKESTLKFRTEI

Sulfotransferase 1E1 [2] = target: T1, Sulfotransferase 1E1; assay: Substrate activity at SULT1E1 (unknown origin) expressed in baculovirus infected Sf9 cells assessed as substrate Vmax incubated for 15 mins using [35S-]PAPS as sulfate donor by TLC analysis; conditions: sf9, 0.25 h, BLD = below limit of detection
Sulfotransferase 1E1 [3] = target: T1, Sulfotransferase 1E1; assay: Substrate activity at SULT1E1 (unknown origin) expressed in baculovirus infected Sf9 cells assessed as substrate Vmax/Km ratio level incubated for 15 mins using [35S-]PAPS as sulfate donor by TLC analysis; conditions: sf9, 0.25 h
Sulfotransferase 2A1 [4] = target: T2, Sulfotransferase 2A1 (Homo sapiens, UniProt Q06520); assay: Substrate activity at SULT2A1 (unknown origin) expressed in baculovirus infected Sf9 cells assessed as substrate Km incubated for 15 mins using [35S-]PAPS as sulfate donor by TLC analysis; conditions: sf9, 0.25 h, BLD = below limit of detection
T2 sequence (Q06520 whole entry): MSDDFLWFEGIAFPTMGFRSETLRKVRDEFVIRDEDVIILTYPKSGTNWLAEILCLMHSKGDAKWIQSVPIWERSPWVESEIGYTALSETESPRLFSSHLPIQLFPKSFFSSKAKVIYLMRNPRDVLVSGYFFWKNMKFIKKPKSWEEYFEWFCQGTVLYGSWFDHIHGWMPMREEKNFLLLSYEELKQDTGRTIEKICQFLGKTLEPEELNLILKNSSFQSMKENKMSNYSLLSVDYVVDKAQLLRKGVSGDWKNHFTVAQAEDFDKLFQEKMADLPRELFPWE

Sulfotransferase 2A1 [5] = target: T2, Sulfotransferase 2A1; assay: Substrate activity at SULT2A1 (unknown origin) expressed in baculovirus infected Sf9 cells assessed as substrate Vmax incubated for 15 mins using [35S-]PAPS as sulfate donor by TLC analysis; conditions: sf9, 0.25 h, BLD = below limit of detection
Sulfotransferase 2A1 [6] = target: T2, Sulfotransferase 2A1; assay: Substrate activity at SULT2A1 (unknown origin) expressed in baculovirus infected Sf9 cells assessed as substrate Vmax/Km ratio incubated for 15 mins using [35S-]PAPS as sulfate donor by TLC analysis; conditions: sf9, 0.25 h, BLD = below limit of detection
Sulfotransferase 1A1 [7] = target: T3, Sulfotransferase 1A1 (Homo sapiens, UniProt P50225); assay: Substrate activity at SULT1A1 (unknown origin) expressed in baculovirus infected Sf9 cells assessed as substrate Km incubated for 15 mins using [35S-]PAPS as sulfate donor by TLC analysis; conditions: sf9, 0.25 h, BLD = below limit of detection
T3 sequence (P50225 whole entry): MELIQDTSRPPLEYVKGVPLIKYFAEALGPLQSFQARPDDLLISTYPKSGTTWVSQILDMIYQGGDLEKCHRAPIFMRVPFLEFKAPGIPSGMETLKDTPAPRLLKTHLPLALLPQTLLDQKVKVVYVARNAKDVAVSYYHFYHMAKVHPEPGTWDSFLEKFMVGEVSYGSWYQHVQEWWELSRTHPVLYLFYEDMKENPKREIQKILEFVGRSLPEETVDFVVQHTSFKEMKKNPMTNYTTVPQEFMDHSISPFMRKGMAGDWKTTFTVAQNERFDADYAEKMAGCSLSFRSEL

Sulfotransferase 1A1 [8] = target: T3, Sulfotransferase 1A1; assay: Substrate activity at SULT1A1 (unknown origin) expressed in baculovirus infected Sf9 cells assessed as substrate Vmax incubated for 15 mins using [35S-]PAPS as sulfate donor by TLC analysis; conditions: sf9, 0.25 h, BLD = below limit of detection
Sulfotransferase 1A1 [9] = target: T3, Sulfotransferase 1A1; assay: Substrate activity at SULT1A1 (unknown origin) expressed in baculovirus infected Sf9 cells assessed as substrate Vmax/Km ratio incubated for 15 mins using [35S-]PAPS as sulfate donor by TLC analysis; conditions: sf9, 0.25 h, BLD = below limit of detection
[10] = Drug uptake in lung of Sprague-Dawley rat with lung inflammation assessed as sulfated form formation at 2 to 2.5 mCi dosed via injection measured after 10 to 15 mins post dose by microPET imaging method; type: ADME, organism-based; conditions: in vivo
[11] = Drug uptake in liver of smoker human subject at 10.5 mCi by microPET imaging method; type: ADME
[12] = Drug uptake in kidney of smoker human subject at 10.5 mCi by microPET imaging method; type: ADME
[13] = Drug uptake in lung of smoker human subject at 10.5 mCi by microPET imaging method; type: ADME
[14] = Drug uptake in liver of non-smoker human subject at 10 mCi by microPET imaging method; type: ADME
[15] = Drug uptake in kidney of non-smoker human subject at 10 mCi by microPET imaging method; type: ADME
[16] = Drug uptake in lung of non-smoker human subject at 10 mCi by microPET imaging method; type: ADME

SMILES	Km (Sulfotransferase 2A1 [4])	Vmax (Sulfotransferase 2A1 [5])	Vmax/Km (Sulfotransferase 2A1 [6])	Vmax/Km (Sulfotransferase 1E1 [3])	Km (Sulfotransferase 1A1 [7])	Vmax (Sulfotransferase 1A1 [8])	Vmax/Km (Sulfotransferase 1A1 [9])	further results
Oc1ccc2cc[nH]c2c1	Bld	Bld	Bld	–	–	–	–	Km (Sulfotransferase 1E1 [1]): Bld; Vmax (Sulfotransferase 1E1 [2]): Bld; Vmax/Km (Sulfotransferase 1E1 [3]; BLD = below limit of detection): Bld
Oc1ccc2occc2c1	Bld	Bld	Bld	0.01	–	–	–	–
Oc1ccc2ccoc2c1	Bld	Bld	Bld	0.03	–	–	–	–
Oc1ccc2[nH]ccc2c1	Bld	Bld	Bld	–	–	–	–	Km (Sulfotransferase 1E1 [1]): Bld; Vmax (Sulfotransferase 1E1 [2]): Bld; Vmax/Km (Sulfotransferase 1E1 [3]; BLD = below limit of detection): Bld
CS(=O)(=O)c1ccc(-c2nc3ccc(O)cc3s2)cc1	Bld	Bld	Bld	2.69	Bld	Bld	Bld	–
CC(=O)Nc1ccc(-c2nc3ccc(O)cc3s2)cc1	Bld	Bld	Bld	0.87	Bld	Bld	Bld	–
Oc1ccc2sccc2c1	Bld	Bld	Bld	0.08	–	–	–	–
Cc1nc2ccc(O)cc2s1	Bld	Bld	Bld	0.47	–	–	–	–
Cc1nc2cc(O)ccc2s1	Bld	Bld	Bld	0.3	–	–	–	–
CN(C)c1ccc(-c2nc3cc(O)ccc3s2)cc1	Bld	Bld	Bld	2.47	–	–	–	–
Oc1ccc2[nH]cnc2c1	Bld	Bld	Bld	–	–	–	–	Km (Sulfotransferase 1E1 [1]): Bld; Vmax (Sulfotransferase 1E1 [2]): Bld; Vmax/Km (Sulfotransferase 1E1 [3]; BLD = below limit of detection): Bld
Oc1ccc2ncoc2c1	Bld	Bld	Bld	0.006	–	–	–	–
COc1ccc(-c2nc3ccc(O)cc3s2)cc1	Bld	Bld	Bld	2.19	Bld	Bld	Bld	–
N#Cc1ccc(-c2nc3ccc(O)cc3s2)cc1	Bld	Bld	Bld	17.1	Bld	Bld	Bld	–
O=[N+]([O-])c1ccc(-c2nc3ccc(O)cc3s2)cc1	Bld	Bld	Bld	29.2	Bld	Bld	Bld	–
Oc1ccc2nc(-c3ccc(I)cc3)sc2c1	Bld	Bld	Bld	5.64	Bld	Bld	Bld	–
Oc1ccc2ccsc2c1	Bld	Bld	Bld	0.25	–	–	–	–
Oc1ccc2ncsc2c1	Bld	Bld	Bld	0.04	–	–	–	–
Oc1ccc2nc(-c3ccccc3)sc2c1	Bld	Bld	Bld	3.22	–	–	–	–
Oc1ccc2nc(-c3ccc(F)cc3)sc2c1	Bld	Bld	Bld	4.52	Bld	Bld	Bld	–
CNc1ccc(-c2nc3cc(O)ccc3s2)cc1	Bld	Bld	Bld	1.39	–	–	–	–
CN(C)c1ccc(-c2nc3ccc(O)cc3s2)cc1	Bld	Bld	Bld	1.11	Bld	Bld	Bld	–
Nc1ccc(-c2nc3ccc(O)cc3s2)cc1	Bld	Bld	Bld	1.7	Bld	Bld	Bld	–
Oc1ccc2ccccc2c1 [BETANAPHTHOL]	–	–	–	0.57	–	–	–	–
CNc1ccc(-c2nc3ccc(O)cc3s2)cc1 [PITTSBURGH COMPOUND B UNLABELLED]	Bld	Bld	Bld	1.28	Bld	Bld	Bld	–
[11CH3]Nc1ccc(-c2nc3ccc(O)cc3s2)cc1 [PITTSBURGH COMPOUND B]	–	–	–	–	–	–	–	Drug uptake [10]: Active; Drug uptake [11]: Active; Drug uptake [12]: Active; Drug uptake [13]: Active; Drug uptake [14]: Active; Drug uptake [15]: Active; Drug uptake [16]: Active
